From patent publication US20260242352A1, “INHIBITION OF SHIP1 AS A THERAPEUTIC STRATEGY FOR THE TREATMENT OF ALZHEIMER'S DISEASE” (The Trustees of Indiana University, priority 2022, published 2026)

Experiments:
Format in all cases: cell-based
[1] = biological target: T1, HiBit-labeled full length SHIP1 protein (Homo sapiens, UniProt Q92835); assay: Cellular thermal shift assay (SplitLuc CETSA), thermal shift format; parameters: key: Y = ΔTm difference of 40 μM compound treated cells from control is Tm > 3SD; N: otherwise negative; details: 40 μM compound for 60 min, HMC3/HiBit-INPP5D cells, 38-52° C. gradient; target engagement positive/negative
T1 construct: thermal stability of a HiBit-labeled full length SHIP1 protein in intact cells; expressed in transfected cells; host or cells: HMC3 (stably transfected)
T1 sequence (Q92835 1-1189): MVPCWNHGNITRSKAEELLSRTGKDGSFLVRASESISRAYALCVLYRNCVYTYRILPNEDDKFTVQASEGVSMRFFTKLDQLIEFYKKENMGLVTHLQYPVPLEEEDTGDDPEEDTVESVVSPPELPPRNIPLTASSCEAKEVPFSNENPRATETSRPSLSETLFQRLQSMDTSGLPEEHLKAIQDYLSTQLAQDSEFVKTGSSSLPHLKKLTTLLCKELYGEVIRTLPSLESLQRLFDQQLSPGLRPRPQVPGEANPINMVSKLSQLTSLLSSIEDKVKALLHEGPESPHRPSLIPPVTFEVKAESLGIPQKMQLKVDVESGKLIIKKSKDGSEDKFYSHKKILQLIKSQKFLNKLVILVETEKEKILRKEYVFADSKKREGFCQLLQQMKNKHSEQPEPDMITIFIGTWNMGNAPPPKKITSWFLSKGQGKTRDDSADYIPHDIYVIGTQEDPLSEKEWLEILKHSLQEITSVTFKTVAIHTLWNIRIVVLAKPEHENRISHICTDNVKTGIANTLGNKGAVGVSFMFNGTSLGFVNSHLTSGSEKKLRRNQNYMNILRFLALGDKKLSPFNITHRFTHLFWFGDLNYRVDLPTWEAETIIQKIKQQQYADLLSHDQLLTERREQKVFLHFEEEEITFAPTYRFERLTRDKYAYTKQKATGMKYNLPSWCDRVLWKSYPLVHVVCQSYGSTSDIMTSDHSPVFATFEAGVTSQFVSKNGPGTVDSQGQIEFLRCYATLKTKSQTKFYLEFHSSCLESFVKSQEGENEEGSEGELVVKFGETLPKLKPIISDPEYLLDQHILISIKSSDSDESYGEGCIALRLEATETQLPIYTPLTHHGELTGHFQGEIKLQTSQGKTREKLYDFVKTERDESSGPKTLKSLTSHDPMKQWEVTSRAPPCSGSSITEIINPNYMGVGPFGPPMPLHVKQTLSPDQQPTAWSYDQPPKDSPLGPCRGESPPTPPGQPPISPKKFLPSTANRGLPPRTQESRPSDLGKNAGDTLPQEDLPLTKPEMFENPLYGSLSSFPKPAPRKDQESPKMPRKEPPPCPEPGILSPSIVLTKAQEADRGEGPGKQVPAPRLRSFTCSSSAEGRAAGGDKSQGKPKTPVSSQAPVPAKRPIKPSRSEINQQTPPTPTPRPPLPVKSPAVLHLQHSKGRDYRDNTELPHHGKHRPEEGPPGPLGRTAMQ
Protocol: (§1) Cellular thermal shift assay (CETSA). […] This assay was run in the following two formats with HMC3/HiBit-INPP5D stably transfected cells.
1. Thermal shift: cells were treated with 40 μM compound for 60 min, then heated with a temperature gradient covering 38-52° C. for 3 min before luminescence detection. Mean and standard deviation of control Tm were determined to generate a “Mean+3SD” ΔTm, which was used as threshold to determine a significant ΔTm of compound from control. When the difference of ΔTm of compound treated cells from control Tm>3SD, the compound was considered positive for target engagement, otherwise negative. SD=average standard deviation.
(§2) See Martinez et al. (2018) Sci Rep 8: p. 9472; Oh-Hashi et al. (2017) Biochem Biophys Rep 12: pp. 40-45. This assay was run in the following two formats with HMC3/HiBit-INPP5D stably transfected cells.
Thermal shift: cells were treated with 40 μM compound for 60 min, then heated with a temperature gradient covering 38-52° C. for 3 min before luminescence detection. Mean and standard deviation of control Tm were determined to generate a “Mean+3SD” ΔTm, which was used as threshold to determine a significant ΔTm of compound from control. When the difference of ΔTm of compound treated cells from control Tm>3SD, the compound was considered positive for target engagement, otherwise negative. SD=average standard deviation.

[2] = tested on: phosphorylated and total AKT (pAKT/tAKT) in THP1 cells; assay: PhosphoAKT assay; details: Homo sapiens, THP-1, 1.5 h, 90 minutes, pAKT (S473)/tAKT ratio, (n) in cell
Protocol: PhosphoAKT assay. THP1 cells were treated with inhibitors for 90 minutes and then the levels of phosphorylated and total AKT (pAKT/tAKT) were detected using the Perkin Elmer Alpha SureFire Ultra Multiplex PhosphoAKT (S473) kit according to the manufacturer's directions. IC50 values were calculated by fitting the ratio of pATK/tAKT versus inhibitor concentration.
THP1 cells were treated with inhibitors for 90 minutes and then the levels of phosphorylated and total AKT (pAKT/tAKT) were detected using the Perkin Elmer Alpha SureFire Ultra Multiplex PhosphoAKT (S473) kit according to the manufacturer's directions. IC50 values were calculated by fitting the ratio of pATK/tAKT versus inhibitor concentration.

[3] = biological target: T1, HiBit-labeled full length SHIP1 protein; assay: Cellular thermal shift assay (SplitLuc CETSA), compound dose response; details: HMC3/HiBit-INPP5D cells, 60 min; for CETSA Min Inhibition (%): heated at 44.2° C.; for AC50: heated at 44.2° C. for 3 min, 8-point curve from 80 uM or 100 uM
Protocol: as §1
2. Compound dose response: run at target Tm (44.2° C. for SHIP1) with compound dosing from 80 uM or 100 uM with 1:3 serial dilutions to generate an 8 point curve. Cells were treated for 60 min before being heated at target Tm for 3 min before luminescence detection. An AC50 was calculated using a four-parameter logistic curve regression model with change at highest concentration noted when difference from control >3SD, otherwise AC50 marked as “nc” for not calculated.
as §2
Compound dose response: run at target Tm (44.2° C. for SHIP1) with compound dosing from 80 uM or 100 uM with 1:3 serial dilutions to generate an 8-point curve. Cells were treated for 60 min before being heated at target Tm for 3 min before luminescence detection. The concentration that induced a half-maximum response (AC50) was calculated using a four-parameter logistic curve regression model with change at highest concentration noted when difference from control >3SD.

| Compound | CETSA SP [1] | IC50 [2] [µM] | CETSA Min Inhibition (%) [3] [%] | AC50 [3] [µM] |
| --- | --- | --- | --- | --- |
| CC(C)(C)OC(=O)N1CCC(n2cc(-c3cncc(OCc4ccccc4)c3)cn2)CC1 [Compound 4, tert-butyl 4-(4-(5-(benzyloxy)pyridin-3-yl)-1H-pyrazol-1-yl)piperidine-1-carboxylate] | N | 31.6 | 69.2 | > 80 |
| Cl.Clc1ccc(COc2cncc(-c3cnn(C4CCNCC4)c3)c2)c(Cl)c1 [Compound 10, 3-((2,4-dichlorobenzyl)oxy)-5-(1-(piperidin-4-yl)-1H-pyrazol-4-yl)pyridine hydrochloride] | Y | 6.52 | 10.2 | 53.8 |
| CC(C)(C)OC(=O)N1CCC(n2cc(-c3cncc(OCc4ccccc4Cl)c3)cn2)CC1 [Compound 1, tert-butyl 4-(4-{5-[(2-chlorophenyl)methoxy]pyridin-3-yl}-1H-pyrazol-1-yl)piperidine-1-carboxylate] | N |  | 74.7 |  |
| Cc1ccccc1COc1cncc(-c2cnn(C3CCN(C(=O)OC(C)(C)C)CC3)c2)c1 [Compound 3, tert-butyl 4-(4-(5-((2-methylbenzyl)oxy)pyridin-3-yl)-1H-pyrazol-1-yl)piperidine-1-carboxylate] | N | 31.2 | 60.8 | 77 |
| C[C@@H](Oc1cncc(-c2cnn(C3CCNCC3)c2)c1)c1ccc(Cl)cc1 [Compound 23, (R)-3-(1-(4-chlorophenyl)ethoxy)-5-(1-(piperidin-4-yl)-1H-pyrazol-4-yl)pyridine] | Y | 4.06 | 8.15 | 50.6 |
| CC(C)(C)OC(=O)N1CCC(n2cc(-c3cncc(OCc4c(Cl)cccc4Cl)c3)cn2)CC1 [Compound 5, tert-butyl 4-(4-(5-((2,6-dichlorobenzyl)oxy)pyridin-3-yl)-1H-pyrazol-1-yl)piperidine-1-carboxylate] | N |  |  |  |
| CC(C)(C)OC(=O)N1CCC(n2cc(-c3cncc(OCc4ccc(Br)cc4)c3)cn2)CC1 [Compound 7, tert-butyl 4-(4-(5-((4-bromobenzyl)oxy)pyridin-3-yl)-1H-pyrazol-1-yl)piperidine-1-carboxylate] | Y* |  | 66.3 |  |
| Cc1ccccc1COc1cncc(-c2cnn(C3CCNCC3)c2)c1 [Compound 25, 3-[(2-Methylphenyl)methoxy]-5-[1-(piperidin-4-yl)-1H-pyrazol-4-yl]pyridine] | Y | 58.4 | 24.9 | 83.6 |
| Cl.Clc1ccccc1COc1cncc(-c2cnn(C3CCNCC3)c2)c1 [Compound 9, 3-((2-chlorobenzyl)oxy)-5-(1-(piperidin-4-yl)-1H-pyrazol-4-yl)pyridine hydrochloride] | Y |  | 16.0 | 55 |
| Clc1ccccc1COc1cccc(-c2cnn(C3CCNCC3)c2)c1 [Compound 29, 4-(4-(3-((2-chlorobenzyl)oxy)phenyl)-1H-pyrazol-1-yl)piperidine] | N | 6.55 | 28.4 | 55 |
| Clc1ccccc1COc1cncc(-n2cc(C3CCNCC3)cn2)c1 [Compound 28, 3-((2-chlorobenzyl)oxy)-5-(4-(piperidin-4-yl)-1H-pyrazol-1-yl)pyridine] | Y | 5.57 | 5.98 | 55.5 |
| C[C@H](Oc1cncc(-c2cnn(C3CCNCC3)c2)c1)c1ccccc1Cl [Compound 21, (S)-3-(1-(2-chlorophenyl)ethoxy)-5-(1-(piperidin-4-yl)-1H-pyrazol-4-yl)pyridine] | Y |  | 24.9 | 54.7 |
| C[C@@H](Oc1cncc(-c2cnn(C3CCNCC3)c2)c1)c1ccccc1Cl [Compound 22, (R)-3-(1-(2-chlorophenyl)ethoxy)-5-(1-(piperidin-4-yl)-1H-pyrazol-4-yl)pyridine] | Y |  | 24.6 | 43.4 |
| CC(C)(C)CC(=O)N1CCC(n2cc(-c3cncc(OCc4ccccc4Cl)c3)cn2)CC1 [Compound 16, 1-(4-(4-(5-((2-chlorobenzyl)oxy)pyridin-3-yl)-1H-pyrazol-1-yl)piperidin-1-yl)-3,3-dimethylbutan-1-one] | N | > 60 | 64.5 | 79.6 |
| CC(C)(C)CCN1CCC(n2cc(-c3cncc(OCc4ccccc4Cl)c3)cn2)CC1 [Compound 15, 3-((2-chlorobenzyl)oxy)-5-(1-(1-(3,3-dimethylbutyl)piperidin-4-yl)-1H-pyrazol-4-yl)pyridine] | N | 17.9 | 66.7 |  |
| CC(C)(C)OC(=O)N1CCC(n2cc(-c3cncc(OCc4ccccc4F)c3)cn2)CC1 [Compound 2, tert-butyl 4-(4-(5-((2-fluorobenzyl)oxy)pyridin-3-yl)-1H-pyrazol-1-yl)piperidine-1-carboxylate] | N |  | 70.6 |  |
